{"source": "patent US9862985B2", "about": "“Identification and susceptibility of microorganisms by species and strain” (SPECIFIC TECHNOLOGIES LLC, priority 2012, dated 2018)", "key": {"K. pneumoniae IS-007 [1]": {"system": "K. pneumoniae IS-007", "experiment": "Colorimetric sensor array antibiotic susceptibility test on solid growth media", "assay_type": "cell-based", "conditions": "vs control without antibiotic", "description": "(§1) To detect a microorganism by species and strain, a sample including the microorganism is placed in a container including culture medium and a colorimetric array, and the temporal response of the sensors to the metabolic products of the microorganism is monitored. Susceptibility can be assessed by inoculating a growth medium including a substance (e.g., an antibiotic) with a microorganism and monitoring the temporal response of the sensors while also monitoring the response of a control (e.g., no antibiotic).\nFIG. 8 depicts container 800 configured for use to assess susceptibility of microorganisms. Container 800 includes base 802 and lid 804, with plates 806 positioned in base 802 opposite colorimetric sensor arrays 808 on lid 804. Microorganisms may be placed in contact with growth medium (e.g., a solid growth medium) in plates 806. A substance (e.g., a drug such as an antibiotic) may be added to the growth medium. In one example, rows and columns of plates 802 in container 800 may be used for different microorganisms, different substances (e.g., drugs effective to kill the microorganisms), or different concentrations of substances. After samples are loaded on plates 802, lid 804 is positioned over base 802, such that each colorimetric sensor array 808 is proximate a plate 806. Susceptibility is assessed via temporal response of the sensors in colorimetric sensor arrays. […]"}, "K. pneumoniae IS-007 [2]": {"system": "K. pneumoniae IS-007", "conditions": "cited from earlier work"}, "K. pneumoniae IS-133": {"system": "K. pneumoniae IS-133", "conditions": "cited from earlier work"}, "K. pneumoniae IS-020": {"system": "K. pneumoniae IS-020", "conditions": "cited from earlier work"}, "S. aureus IS-120 [3]": {"system": "S. aureus IS-120", "experiment": "Colorimetric sensor array antibiotic susceptibility test on solid growth media", "assay_type": "cell-based", "description": "as §1\n(§2) FIG. 8 depicts container 800 configured for use to assess susceptibility of microorganisms. Container 800 includes base 802 and lid 804, with plates 806 positioned in base 802 opposite colorimetric sensor arrays 808 on lid 804. Microorganisms may be placed in contact with growth medium (e.g., a solid growth medium) in plates 806. A substance (e.g., a drug such as an antibiotic) may be added to the growth medium. In one example, rows and columns of plates 802 in container 800 may be used for different microorganisms, different substances (e.g., drugs effective to kill the microorganisms), or different concentrations of substances. After samples are loaded on plates 802, lid 804 is positioned over base 802, such that each colorimetric sensor array 808 is proximate a plate 806. Susceptibility is assessed via temporal response of the sensors in colorimetric sensor arrays. Container 800 can be positioned in an apparatus (e.g., apparatus 700) for automated assessment of susceptibility.\n(§3) Susceptibility is indicated by a lack of metabolic products compared to controls (no antibiotic).\n(§4) In another susceptibility test, three strains of S. aureus were inoculated onto the solid growth media. […] S. aureus IS-124 was susceptible to both antibiotics in agreement with known susceptibility information that this strain is susceptible to Oxacillin and Vancomycin."}, "S. aureus IS-123 [4]": {"system": "S. aureus IS-123", "experiment": "Colorimetric sensor array antibiotic susceptibility test on solid growth media", "assay_type": "cell-based", "description": "as §1, §2, §3, §4"}, "S. aureus IS-120 [5]": {"system": "S. aureus IS-120", "conditions": "cited from earlier work"}, "S. aureus IS-123 [6]": {"system": "S. aureus IS-123", "conditions": "cited from earlier work"}, "S. aureus IS-124": {"system": "S. aureus IS-124", "conditions": "concentration not given; cited from earlier work"}, "[7]": {"conditions": "antibiotic at 2 ug/ml in solid growth media"}, "[8]": {"conditions": "antibiotic at 1-2 ug/ml in solid growth media"}}, "data": [{"molecule": "CO/N=C(\\C(=O)N[C@@H]1C(=O)N2C(C(=O)[O-])=C(C[N+]3(C)CCCC3)CS[C@H]12)c1csc(N)n1", "note": "[Cefepime]", "values": [{"measurement": "susceptibility or resistance of the strain to the antibiotic", "setting": "K. pneumoniae IS-007 [1]; antibiotic at 8 ug/ml in solid growth media", "result": "resistance"}, {"measurement": "concentration at which the strain is susceptible (known susceptibility information)", "setting": "K. pneumoniae IS-007 [2]", "result": "< 0.25", "unit": "µg/mL"}, {"measurement": "concentration below which the strain is resistant (known susceptibility information)", "setting": "K. pneumoniae IS-007 [2]", "result": "below 64 ug/ml"}, {"measurement": "concentration below which the strain is resistant (known)", "setting": "K. pneumoniae IS-133", "result": "below 64 ug/ml"}, {"measurement": "concentration at which the strain is susceptible (known susceptibility information)", "setting": "K. pneumoniae IS-020", "result": "< 1", "unit": "µg/mL"}]}, {"molecule": "C[C@@H](O)[C@H]1C(=O)N2C(C(=O)O)=C(S[C@@H]3CN[C@H](C(=O)N(C)C)C3)[C@H](C)[C@H]12", "note": "[Meropenem]", "values": [{"measurement": "susceptibility or resistance of the strain to the antibiotic", "setting": "K. pneumoniae IS-007 [1]; antibiotic at 1 ug/ml in solid growth media", "result": "susceptibility"}, {"measurement": "concentration below which the strain is resistant (known)", "setting": "K. pneumoniae IS-133", "result": "below 16 ug/ml"}, {"measurement": "concentration at which the strain is susceptible (known susceptibility information)", "setting": "K. pneumoniae IS-020", "result": "< 0.25", "unit": "µg/mL"}]}, {"molecule": "Cc1onc(-c2ccccc2)c1C(=O)N[C@@H]1C(=O)N2[C@@H]1SC(C)(C)[C@@H]2C(=O)O", "note": "[Oxacillin]", "values": [{"measurement": "susceptibility or resistance of the strain to the antibiotic", "setting": "S. aureus IS-120 [3]; [7]", "result": "resistance"}, {"measurement": "susceptibility or resistance of the strain to the antibiotic", "setting": "S. aureus IS-123 [4]; [7]", "result": "resistance"}, {"measurement": "concentration below which the strain is resistant (known susceptibility information)", "setting": "S. aureus IS-120 [5]", "result": "below 4 ug/ml"}, {"measurement": "concentration below which the strain is resistant (known susceptibility information)", "setting": "S. aureus IS-123 [6]", "result": "below 4 ug/ml"}, {"measurement": "known susceptibility of the strain to the antibiotic", "setting": "S. aureus IS-124", "result": "susceptible"}]}, {"molecule": "CN[C@H](CC(C)C)C(=O)N[C@H]1C(=O)N[C@@H](CC(N)=O)C(=O)N[C@H]2C(=O)N[C@H]3C(=O)N[C@H](C(=O)N[C@H](C(=O)O)c4cc(O)cc(O)c4-c4cc3ccc4O)[C@H](O)c3ccc(c(Cl)c3)Oc3cc2cc(c3O[C@@H]2O[C@H](CO)[C@@H](O)[C@H](O)[C@H]2O[C@H]2C[C@](C)(N)[C@H](O)[C@H](C)O2)Oc2ccc(cc2Cl)[C@H]1O", "note": "[Vancomycin]", "values": [{"measurement": "susceptibility or resistance of the strain to the antibiotic", "setting": "S. aureus IS-120 [3]; [8]", "result": "susceptibility"}, {"measurement": "susceptibility or resistance of the strain to the antibiotic", "setting": "S. aureus IS-123 [4]; [8]", "result": "susceptibility"}, {"measurement": "known susceptibility of the strain to the antibiotic", "setting": "S. aureus IS-120 [5]; concentration not given", "result": "susceptible"}, {"measurement": "known susceptibility of the strain to the antibiotic", "setting": "S. aureus IS-123 [6]; concentration not given", "result": "susceptible"}, {"measurement": "known susceptibility of the strain to the antibiotic", "setting": "S. aureus IS-124", "result": "susceptible"}]}]}
